From patent US11447534B2, “Peptide complex with immunodulatory and anti-inflammatory function” (NATIONAL INSTITUTE OF IMMUNOLOGY, priority 2018, dated 2022)

Tests used:
Abeta42 = biological target: T1, Abeta42 (Homo sapiens, UniProt P05067); test: Abeta42 fibrillization in situ (TEM, Thioflavin T binding assay); assay type: biochemical; conditions: Abeta42 100 μM + Glu-OC 3 ng vs Abeta42 control, 8th hour
T1 construct: of Abeta 1-42 peptide; Molecular weight = 4514.1; purchased r-peptide
Description: For this study, different concentrations of Glu-OC viz. […] After keeping the samples for 5 minutes, the excess was washed off with ultrapure water and surplus sample and water were wicked away using absorbent paper. The samples were negatively stained using 1% uranyl acetate stain, dried and analyzed in a transmission electron microscope CM10 Philips operated at 80 kV. […] ThT assay measures the changes in fluorescence intensity of ThT upon binding to amyloid fibrils. […] The resulting ThT fluorescence intensities of samples were measured at an emission wavelength of 480 nm and excitation wavelength of 440 nm and 5 nm slit width using a Jobin Vyon Horiba Fluoromax-4 spectrofluorimeter. The inner filter effect was taken into account using the Equation: Fc=F×anti log[(Aex+Aem)/2] where Fc is the corrected flourescence and F is apparent fluorescence, Aex and Aem are the absorbances of the samples at excitation and emission wavelengths respectively.

RAW264.7 macrophages = test: Lactate dehydrogenase (LDH) assay in macrophages; assay type: cell-based, murine
Description: Effect of Abeta-Glu-OC (3 ng) mixture on macrophage integrity: To determine whether the mixture produced any toxicity lactate dehydrogenase (LDH) assay was performed. Briefly, the cells were incubated with the mixture under serum starved conditions for 1 hour followed by LDH assay. LDH was assayed using In vitro toxicology assay kit from Sigma-Aldrich, St. Louis, Mo., USA (cat. no.-TOX7) as per the manufacturer's directions. LDH assay substrate solution, LDH assay dye solution and 1×LDH assay cofactor were provided with the kit. […] To this LDH assay mixture was added and incubated at room temperature in the dark for 20-30 min. The reaction was terminated by the addition of 1/10 volume of 1N HCl. Absorption was taken 490 nm with the help of in a Tecan Microplate reader, Switzerland with Magellan™ software.

CD36 scavenger receptor = test: Flow cytometry of cell surface CD36 in macrophages; assay type: cell-based, murine; conditions: 1 hour exposure, FACS
Description: To determine the immunomodulatory effect of A-O complex, serum starved macrophages were exposed to the complex. Macrophages (1×10^6 cells) were serum starved for 30 min after which cells were exposed to A-O complex. After 1 hour, cells were washed with 1×PBS (pH 7.4) and harvested using cell dissociation solution. Then the cells were suspended in ice cold staining buffer (100 μl) and centrifuged at 1000 rpm for 5 min at 4° C. The cells were resuspended in 100 μl ice cold staining buffer for 10 min at 2-8° C. and pellet resuspended in 50 μl staining media. To this 2 μl of Fc block or anti-mouse CD16/CD32 was added for 10 mins and washed with staining buffer. The cells were resuspended in 50 μl of staining buffer and incubated with fluorescent-tagged CD36 antibody (e-biosciences) for 25-30 min on ice. The excess stain was removed by washing and pelleting down using staining buffer thrice by spinning and removal of staining buffer. The cell suspension was fixed 1:1 ratio (staining buffer:fixative) and analysed within 48 h in ARIA3 DIVA software version 6.1. Further, expression of MHC-II, and CD-36, was also determined in the microglial cells via qPCR. […] Following amplification, fold changes in gene expression versus β-actin (reference) analysis was determined using the 2^ΔΔCT(Livak) method.

[1] = system: iNOS (inducible nitric oxide synthase); test: iNOS Western blot and Griess nitrite assay in ConA activated macrophages; assay type: cell-based, murine; conditions: ConA induced
Description: To determine the anti-inflammatory potential of A-O complex, protein level of iNOS (inducible nitric oxide synthase) in cell lysates and nitrite level in cell culture supernatants were evaluated by Western blot and Griess assay respectively. iNOS antibody used was #2982 from Cell Signaling Technology. For determination of nitrite cell culture media and Griess reagent (5% phosphoric acid containing 0.1% NEDD, 1% sulfanilamide) were mixed and incubated in dark for 10 min at room temperature. The absorbance of the violet colored product and blank (cell culture media) was measured at 540 nm. The concentration of nitrite in the sample was determined from a sodium nitrite (NaNO2) standard curve.

[2] = system: co-culture of osteoblast (MC3T3-E1) and osteoclast (from RAW264.7); test: Osteoblast-osteoclast co-culture, mRNA by Real Time PCR; assay type: cell-based, mouse; conditions: 24 hours of incubation, vs basal
Description: Effect of A-O complex on bone cells: To determine whether A-O complex modulated bone cells, A-O complex was added to a co-culture system of osteoblast and osteoclast. MC3T3-E1 sub-clone 4 (pre-osteoblast cell line derived from new born mouse calvaria purchased from American Type Culture Collection) were cultured in α-MEM (Invitrogen, USA) supplemented with 10% fetal bovine serum and 1% anti-anti (Invitrogen, USA). Osteoblasts within the 4th and 10th passages were used for this study. For cell culture experiments 2×10^6 cells were seeded in 60 mm Petri plates. To initiate differentiation, cells were treated with 10 mM β-glycerophosphate and 50 μg/ml ascorbic acid. Murine RAW264.7 (macrophage) cells were used for generating osteoclasts. The cells were maintained in RPMI 1640 media supplemented with glutamine (2 mM) and FBS (10%). No trypsination was performed and subculture was done using a cell scraper after cultures reached 65-70% confluency. For generation of osteoclasts from RAW264.7 cells, cells of density 12000 cells per cm^2 were stimulated with 25 ng per ml of RANKL (directly with seeding) for 72-96 hours after which large multinucleated cells are seen and confirmed using TRAP5b assay. […] Thereafter the co-culture was exposed to A-O complex and the mRNA levels of osteocalcin and IGF-1 were analyzed by Real Time PCR.

T1 sequence (P05067 672-713): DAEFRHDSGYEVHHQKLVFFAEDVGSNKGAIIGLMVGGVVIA

In the case of “A-O complex: peptide complex of 100 μM Abeta1-42 (SEQ ID NO: 1) and 3 ng Glu-OC (SEQ ID NO: 2), incubated at 37° C. for 4 hours”, the ThT fluorescence emission (Abeta42) is reported as “high enhancement of fluorescence emission of ThT”, the “intracellular LDH” value (RAW264.7 macrophages) is reported as “did not show any rise in intracellular LDH” and the “cell surface protein expression of CD36 receptor” value (CD36 scavenger receptor) is reported as “increased cell surface protein expression”. For the same substance, the iNOS protein expression ([1]; macrophage cell lysates, Western blot) was “reduces the iNOS expression”, the “nitrite level in cell culture supernatants” value ([1]; macrophage cultures, Griess assay) was “reduction in the ConA induced nitrite levels” and the “mRNA transcripts of IGF-1” value [2] was “significantly higher”. For the same substance, the “mRNA transcripts of osteocalcin” value [2] was “significantly higher”.
